Laboratory results taken from patent publication US9168243B2, “Pharmaceutical compositions comprising 8-substituted dibenzylbutyrolactone lignans” (priority 2010, dated 2015).

Legend:
phospho-GSK-3β(ser9) = assay: Western blot of GSK-3β / phospho-GSK-3β(ser9); format: cell-based; conditions: LNCaP +/- 1 nM androgen; 100 μM NTG, 0-8 hours
Description: (§1) Whole cell lysates were prepared by lysing floating and attached cells in Laemmli sample buffer and boiling the samples for 10 minutes. Proteins were separated by SDS-PAGE and transferred on PVDF membrane (Millipore). Western blotting was performed using antibodies against Akt, phospho-Akt (Ser473), GSK-3β, phospho-GSK-3β (Ser9) and phospho-EGF receptor Tyr(1068) (Cell Signalling Technology), Actin (clone AC-40; Sigma-Aldrich), PI3K p85α (clone 4/PI3-Kinase; BD Pharmingen), EGF receptor, Insulin receptor β and IGF-I receptor β (Santa Cruz Biotechnology), and Phospho-tyrosine (clone 4G10; Millipore). HRP-conjugated secondary antibodies were from Southern Biotechnology Associates, Promega, and Amersham Biosciences. The results were visualized using the ECL method (Amersham Biosciences) on x-ray film. The presented Western blot results are representative of at least three independent experiments. […]
LNCaP cells (+/−1 nM androgen) were treated with 0-100 μM enterolactone (ENL), matairesinol (MAT) or NTG for 1 hour prior to preparation of total cell lysates (FIG. 4A). The relative decrease in pAkt/Akt ratio was quantified from western blot analysis with Akt (60 kDa) and phospho-Akt(ser473) (Mean±SEM; n=4; Student's t-test *p<0.05, **p<0.01). […] The western blot analysis with Akt, phospho-Akt(ser473), GSK-3β and phospho-GSK-3β(ser9) was quantified. […]

EGF receptor (EGFR) = assay: EGF-induced EGFR tyrosine 1068 phosphorylation, Western blot; format: cell-based; conditions: LNCaP; pretreatment with 100 μM NTG; 20 ng/ml EGF, 5 minutes
Description: The cells were treated with 0-100 μM lignans or solvent control for indicated times. Human recombinant isoleucin-zipper TRAIL (izTRAIL; kindly provided by Professor Henning Walczak) was used at 0-1 μg/ml with an incubation time of 20 hours. Prior to 10 minutes treatment with 10 nM IGF-1 (Millipore) or 10 nM insulin (Sigma) the cells were serum-starved (1% FCS) overnight. EGFR stimulation was performed on serum-starved cells with 20 ng/ml EGF for 5 minutes (a kind gift from Professor Klaus Elenius laboratory).
as §1, with “film.” for “film. The presented Western blot results are representative of at least three independent experiments.”

COc1cc(CC2COC(=O)C2(O)Cc2ccc(O)c(OC)c2)ccc1O (centres unmarked) [NTG, Nortrachelogenin]
GSK-3β phosphorylation (pGSK-3β/GSK-3β ratio) (phospho-GSK-3β(ser9)): downregulates Akt and GSK-3β phosphorylation | EGF-induced tyrosine phosphorylation of EGFR (EGF receptor (EGFR)): attenuated the EGF-induced tyrosine phosphorylation of EGFR
